Data on three compounds can be found in patent US11034662B2, “Substituted phenothiazines as mitochondrial agents” (ARIZONA BOARD OF REGENTS ON BEHALF OF ARIZONA STATE …, priority 2015, dated 2021).

Each structure is given as a SMILES string.

Assay [1] relates to bovine heart mitochondrial NADH oxidase activity (complexes I, III and IV). Put plainly: NADH oxidase activity in bovine heart mitochondria. The assay is classed as biochemical. The settings on record: complex I completely blocked by rotenone; FIG. 6. As for the experimental part: The effect of the methylene blue analogues on the activities of complexes I, III and IV within the respiratory chain was evaluated using bovine heart mitochondria during the oxidation of their respective substrate (NADH) as described previously. Briefly, a small scale preparation of bovine heart mitochondria was prepared as described before (Smith, A. L (1967), Methods Enzymol. 10, 81). Bovine heart submitochondrial particles (SMPs) were prepared as described by Matsuno-Yagi and stored in a buffer containing 0.25 M sucrose and 10 mM Tris-HCl, pH 7.4, at −80° C. (Matsuno-Yagi, A.; Hatefi, Y. J. (1985) J. Biol. Chem. 260, 11424). SMPs were diluted to 0.5 mg/mL. Mitochondrial complexes I, III, and IV activity were assayed at 30 C and monitored spectrophotometrically using a Beckman Coulter DU-530 (340 nm, ε=6.22 mM^−1 cm^−1). NADH oxidase activity was determined in 50 mM Hepes buffer containing 5 mM MgCl2, pH 7.5, in a total volume of 2.5 mL. The final mitochondrial protein concentration was 30 μg/mL. The initial rates of NADH oxidation were calculated from the linear portion of the traces.

The next assay relates to frataxin. Description: Frataxin protein expression (Western blot) in FRDA lymphocytes. The format is cell-based, human. The settings on record: for level of frataxin (western blot): FRDA lymphocytes, FIG. 9. The procedure: Human mitochondrial disease cell line, Friedreich's ataxia lymphocytes (GM15850) was obtained from Coriell Cell Repositories (Camden, N.J.). Lymphocytes were cultured in RPMI-1640 medium (Gibco, Life Technologies, Grand Island, N.Y.) with 15% fetal calf serum, 2 mM glutamine (HyClone, South Logan, Utah) and 1% penicillin-streptomycin antibiotic supplement (Cellgro, Manassas, Va.). Cells were passaged every other day to maintain them in log phase growth and kept at a nominal concentration of 5-10×10^5 cell/mL. A CoQ10 deficient lymphocyte cell line (GM17932) was obtained from Coriell Cell Repositories. A nutrient sensitized screening strategy to identify methylene blue analogues that function within the mitochondrial respiratory chain was used by growing the CoQ10-deficient or FRDA lymphocytes in galactose containing media to force energy production predominantly through oxidative phosphorylation rather than glycolysis.^1-4 The lymphocytes were cultured in RPMI 1640 glucose free medium (Gibco, Grand Island, N.Y.) supplemented with 25 mM galactose, 2 mM glutamine and 1% penicillin-streptomycin, and 10% dialyzed fetal bovine serum (FBS) (<0.5 μg/mL) (Gemini Bio-Product, West Sacramento, Calif.).
Immortalized normal and FRDA lymphocyte cell lines were seeded at 500,000 cells per/mL (5 mL) in T-25 flask. Cultures were treated with the test compounds and incubated for 24 h. Cells were harvested by centrifugation, washed with saline buffer and then were lysed using 200 μL of lysis buffer (1% triton X-100, 0.1% SDS, Tris-HCl (50 Mm) pH 7.4, 150 mM NaCl, 0.5% sodium deoxycholate, 0.1 mM EDTA) with protease inhibitors (protease cocktail inhibitors (Roche Applied Science) and 1 mM phenylmethylsulfonyl fluoride (Sigma), and incubated on ice for 30 min with periodical mixing. These samples were cleared of insoluble material by centrifugation at 20,000×g for 10 min at 4° C. Total protein concentration was measured by the BCA kit (Thermo Fisher Scientific). NuPAGE LDS Sample Buffer (4×) and NuPAGE Reducing Agent (10×) was added the lysate and they were denatured at 95° C. for 5 min, then equal amounts of lysates ([…]) were used for immunoblotting. Samples were resolved on a 4%-12% SDS-polyacrylamide Bis-Tris gels (Invitrogen) according to the manufacturer's recommendations and then proteins were transferred to nitrocellulose membranes. After blocking with Superblock-TBS (Thermo Fisher Scientific) for 1 hour to inhibit non-specific binding the blot was incubated with anti-frataxin monoclonal antibody (5 μg/mL) (18A5DB1) (Novex®) (Life technologies) overnight at 4° C. to detect endogenous frataxin in FRDA and normal lymphocytes. Following three 5-min washes with TBST, the blots were incubated with horseradish peroxidase-linked secondary […] antibody IgGs (1:10,000, Sigma, in Superblock-TBS) at room temperature for 1 hr. The blots were washed three times for 5 min with TBST, rinsed with deionized H2O, and developed with enhanced chemiluminescence (ECL) (BioRad Chemi-Doc) using West Pico Chemiluminescent Substrate (Pierce Biotechnology).

Consider `CCCCCCCCCCCCCCCCCc1cc2nc3ccc(N(C)C)cc3sc-2cc1=[N+](C)C` [compound 5, N-(7-(dimethylamino)-2-heptadecyl-3H-phenothiazin-3-ylidene)-N-methylmethan-aminium iodide], for which, in assay [1], the “effect on NADH oxidase activity: redirection of electron flow in the respiratory chain” value was “able redirect electron flow in the respiratory chain”.
`CCCCCCCCCCCCCCCN(CCCC)c1ccc2nc3ccc(=O)cc-3sc2c1` [compound 33, 7-(butyl(pentadecyl)amino)-3H-phenothiazin-3-one]: the “level of frataxin (western blot)” value in the assay with frataxin (higher concentration) and in the assay on frataxin (lower concentration) was “significantly increased” each time. Also, the frataxin levels result in the assay with frataxin (general statement, concentration not given) is given as “significantly increased”.
For `CN(C)c1ccc2nc3ccc(=[N+](C)C)cc-3sc2c1` [Methylene blue, 3,7-bis(dimethylamino)phenazathionium chloride, reference compound], the “level of frataxin (western blot)” value was “did not” in the assay with frataxin (higher concentration) and “slightly increased” in the assay with frataxin (lower concentration).
